Experiments:
[1] = biological target: T1, porcine pancreas elastase (Sus scrofa, UniProt P00772); assay: Inhibitory activity against porcine pancreas elastase; assay type: biochemical; settings: porcine pancreas elastase 40 ng/ml, substrate Suc-Ala-Ala-Ala-pNA 2.5 mM
T1 construct: purchased Elastin Products Co., Inc
Method: Experiment 2: Inhibitory Activity Against Porcine Pancreas Elastase
The inhibitory activity was measured in the same manner as experiment 1, except for using porcine pancreas elastase (Elastin Products Co., Inc., final concentration 40 ng/ml) as a target enzyme and Suc-Ala-Ala-Ala-pNA (succinyl-alanyl-alanyl-alanyl-p-nitroanilide, Peptide Research, final concentration 2.5 mM) as a substrate.

[2] = tested on: pulmonary hemorrhage induced by human neutrophil elastase (HNE); assay: Inhibitory activity on pulmonary hemorrhage induced by human neutrophil elastase (HNE); assay type: in vivo; settings: hamster; for ED50: Homo sapiens, Neutrophil, po, orally administered 30 minutes prior to intratracheal HNE, hemoglobin in bronchoalveolar lavage fluid after 1 hour; for Pulmonary hemorrhage inhibitory rate (%): dose 3 mg/kg orally, 30 minutes prior to HNE
Source text: Experiment 3: Inhibitory Activity on Pulmonary Hemorrhage Induced by Human Neutrophil Elastase (HNE)
This experiment tested on in vivo efficacy of the compound of the present invention. When human neutrophil elastase is intratracheally administered to a hamster, the pulmonary hemorrhage is induced. A definite time later after administration of the elastase, in the bronchoalveolar lavage fluid by washing lung via trachea, hemoglobin is detected.
Hamsters (Syrian strain, 7–10 weeks old male) were divided into groups consisting of 3 to 6, and each group was treated as follows:
(A) A Group to which the Compound of the Present Invention was not Administered (Disease Control):
Physiological saline solution (0.2 ml) in which 25 unit of human neutrophil elastase (Elastin Product Co., Inc.) was dissolved was intratracheally administered to a hamster to induce the pulmonary hemorrhage. One hour later after administration of elastase, the hamsters were sacrificed by exsanquination, and alveoli were transtracheally washed twice with physiological saline (2.5 ml), and the hemoglobin concentration in the bronchoalveolar lavage fluid (5 ml) was determined by measuring the absorbance at 414 nm.
(B) A Group to which the Compound of the Present Invention was Administered:
A fixed amount of the compound of the present invention was dissolved in dimethyl sulfoxide (DMSO), and thereto was added 0.5% tragacanth gum to prepare a suspension. The suspension was orally administered to a hamster, 30 minutes prior to the administration of human neutrophil elastase (HNE) (final concentration of DMSO, 1%), and then, human neutrophil elastase was administered in the same manner as the above method (A). After 1 hour, the concentration of hemoglobin in the bronchoalveolar lavage fluid was determined in the same manner as the above method (A).
The hemorrhage inhibition activity of the compound of the present invention is represented as the hemorrhage inhibiting rate in the following formula.
The dose of the compound of the present invention to be required to achieve 50% inhibition of pulmonary hemorrhage (i.e., ED50) was calculated based on the administration dose-hemorrhage inhibiting rate curve.
As a comparative example, the same experiment was also carried out on a comparative compound used in Experiment 1.
Some of the compounds of the present invention were compared with the comparative compound on the hemorrhage inhibitory rate at the dose of 3 mg/kg.

[3] = biological target: T2, human neutrophil elastase (Homo sapiens, UniProt P08246); assay: Inhibitory activity on human neutrophil elastase (HNE) in vitro; assay type: biochemical; settings: human neutrophil elastase 0.2 U/ml, substrate MeO-Suc-Ala-Ala-Pro-Val-pNA 0.5 mM, 37° C., pH 7.5
T2 construct: purchased Elastine Product Co., Inc
T2 sequence (P08246 30-267): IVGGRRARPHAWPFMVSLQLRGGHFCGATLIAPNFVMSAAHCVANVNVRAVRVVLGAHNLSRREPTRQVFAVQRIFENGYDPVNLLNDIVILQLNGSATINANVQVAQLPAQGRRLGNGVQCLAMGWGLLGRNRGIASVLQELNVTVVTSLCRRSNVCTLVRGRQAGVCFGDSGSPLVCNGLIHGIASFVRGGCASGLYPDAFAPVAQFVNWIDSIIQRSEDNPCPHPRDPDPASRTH
Method: Experiment 1: Inhibitory Activity on Human Neutrophil Elastase (HNE)
The inhibitory activity of the compound of the present invention in vitro on human neutrophil elastase was examined by this experiment.
To 100 mM of HEPES {[N-(2-hydroxyethyl)piperazine-N′-(2-ethanesulfonic acid)], pH 7.5}buffer solution containing 1M NaCl and 0.001% Brij-35 (polyoxyethylene lauryl ether) were added human neutrophil elastase (final concentration: 0.2 U/ml, Elastine Product Co., Inc.) and the compound of the present invention (dissolved in 10% dimethyl sulfoxide; final concentration: 10^−10˜3×10^−3 M). The mixture was pre-incubated for 3 minutes at 37° C. Thereto was added MeO-Suc-Ala-Ala-Pro-Val-pNA (methoxysuccinyl-alanyl-alanyl-prolyl-valyl-p-nitroanilide (Sigma Chemical Co.)) as a substrate to give the final concentration of 0.5 mM, and the reaction was initiated. Under this condition, the producing rate of the reaction product, p-nitroanilide (pNA) at 37° C. was estimated by measuring the absorbance at 404 nm for 3 minutes.
The inhibitory activity of the compound of the present invention against human neutrophil elastase (HNE) is calculated according to the following formula.
The concentration of the compound of the present invention to be required to achieve 50% HNE inhibition (i.e., IC50) was calculated based on the concentration-inhibitory rate curve of the compound of the present invention.
As a comparative compound, N-[(1S)-2-((2S)-2-{N-[(1S)-3,3,3-trifluoro-1-(methylethyl)-2-oxopropyl]carbamoyl}pyrrolidinyl)-1-(methylethyl)-2-oxoethyl](imidazol-4-yl)carboxamide was used, and the same assay was carried out. The planar structure of this compound was the same as one of compound (22) disclosed in J. Med. Chem., 1997, 40, 1876–1885.

ICR mice = assay: Acute toxicity; assay type: in vivo; settings: male ICR mice (5 mice), 300 mg/kg orally, after 24 hours
Method: Experiment 5: Acute Toxicity
The compound of the present invention (each compound of Example 10, Example 11, Example 15, Example 25, and Example 40) was suspended in 0.5% tragacanth gum and the suspension was orally administered to 7 weeks old, male ICR mice (5 mice) at 300 mg/kg.

T1 sequence (P00772 27-266): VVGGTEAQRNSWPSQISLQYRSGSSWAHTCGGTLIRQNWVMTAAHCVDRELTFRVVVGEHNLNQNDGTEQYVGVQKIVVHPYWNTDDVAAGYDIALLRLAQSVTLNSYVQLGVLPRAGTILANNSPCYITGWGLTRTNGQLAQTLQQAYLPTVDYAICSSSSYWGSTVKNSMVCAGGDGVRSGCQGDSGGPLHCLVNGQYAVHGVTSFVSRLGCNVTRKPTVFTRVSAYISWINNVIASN

Row | IC50 [1] [nM] | IC50 [3] [nM] | SMILES | ED50 [2] [mg/kg] | Acute toxicity: death or not (ICR mice) | Pulmonary hemorrhage inhibitory rate (%) [2] [%]
1 | 154 | 17 | Cc1noc(C)c1C(=O)N[C@H](C(=O)N1CCC[C@H]1C(=O)N[C@H](C(=O)C(F)(F)F)C(C)C)C(C)C [Example 1, N-[(1S)-2-((2S)-2-{N-[(1S)-3,3,3-trifluoro-1-(methylethyl)-2-oxopropyl]carbamoyl}pyrrolidinyl)-1-(methylethyl)-2-oxoethyl](3,5-dimethylisoxazol-4-yl)carboxamide] | 2.6 | – | –
2 | 215 | 8.1 | CC(C)[C@H](NC(=O)c1noc2ccccc12)C(=O)N1CCC[C@H]1C(=O)N[C@H](C(=O)C(F)(F)F)C(C)C [Example 2, N-[(1S)-2-((2S)-2-{N-[(1S)-3,3,3-trifluoro-1-(methylethyl)-2-oxopropyl]carbamoyl}pyrrolidinyl)-1-(methylethyl)-2-oxoethyl](benzo [d]isoxazol-3-yl)carboxamide] | 0.86 | – | –
3 | 155 | 13 | Cc1nnsc1C(=O)N[C@H](C(=O)N1CCC[C@H]1C(=O)N[C@H](C(=O)C(F)(F)F)C(C)C)C(C)C [Example 3, N-[(1S)-2-((2S)-2-{N-[(1S)-3,3,3-trifluoro-1-(methylethyl)-2-oxopropyl]carbamoyl}pyrrolidinyl)-1-(methylethyl)-2-oxoethyl]-(4-methyl-1,2,3-thiadiazol-5-yl)carboxamide] | 1.6 | – | –
4 | – | 16 | CC(C)Oc1cc(C(=O)N[C@H](C(=O)N2CCC[C@H]2C(=O)N[C@H](C(=O)C(F)(F)F)C(C)C)C(C)C)on1 [Example 12, N-[(1S)-2-((2S)-2-{N-[(1S)-3,3,3-trifluoro-1-(methylethyl)-2-oxopropyl]carbamoyl}pyrrolidinyl)-1-(methylethyl)-2-oxoethyl]-[3-(methylethoxy)isoxazol-5-yl]carboxamide] | – | – | 66
5 | – | 11 | Cc1cc2onc(C(=O)N[C@H](C(=O)N3CCC[C@H]3C(=O)N[C@H](C(=O)C(F)(F)F)C(C)C)C(C)C)c2cc1C [Example 17, N-[(1S)-2-((2S)-2-{N-[(1S)-3,3,3-trifluoro-1-(methylethyl)-2-oxopropyl]carbamoyl}pyrrolidinyl)-1-(methylethyl)-2-oxoethyl]-(5,6-dimethylbenzo[d]isoxazol-3-yl)carboxamide] | – | – | 59

Continued, compound first:

Row | SMILES | IC50 [1] [nM] | IC50 [3] [nM] | ED50 [2] [mg/kg] | Acute toxicity: death or not (ICR mice) | Pulmonary hemorrhage inhibitory rate (%) [2] [%]
6 | Cc1c(C(=O)N[C@H](C(=O)N2CCC[C@H]2C(=O)N[C@H](C(=O)C(F)(F)F)C(C)C)C(C)C)cnn1-c1ccccc1 [Example 10, N-[(1S)-2-((2S)-2-{N-[(1S)-3,3,3-trifluoro-1-(methylethyl)-2-oxopropyl]carbamoyl}pyrrolidinyl)-1-(methylethyl)-2-oxoethyl]-(5-methyl-1-phenylpyrazol-4-yl)carboxamide] | – | 10 | 1.1 | all were alive | –
7 | COc1cc(C(=O)N[C@H](C(=O)N2CCC[C@H]2C(=O)N[C@H](C(=O)C(F)(F)F)C(C)C)C(C)C)on1 [Example 11, N-[(1S)-2-((2S)-2-{N-[(1S)-3,3,3-trifluoro-1-(methylethyl)-2-oxopropyl]carbamoyl}pyrrolidinyl)-1-(methylethyl)-2-oxoethyl]-(3-methoxyisoxazol-5-yl)carboxamide] | – | 27 | 1.5 | all were alive | –
8 | Cc1cc(C(=O)N[C@H](C(=O)N2CCC[C@H]2C(=O)N[C@H](C(=O)C(F)(F)F)C(C)C)C(C)C)no1 [Example 15, N-[(1S)-2-((2S)-2-{N-[(1S)-3,3,3-trifluoro-1-(methylethyl)-2-oxopropyl]carbamoyl}pyrrolidinyl)-1-(methylethyl)-2-oxoethyl]-(5-methylisoxazol-3-yl)carboxamide] | – | 24 | 0.62 | all were alive | –
9 | CC(C)[C@H](NC(=O)c1cc(C(C)(C)C)n(C)n1)C(=O)N1CCC[C@H]1C(=O)N[C@H](C(=O)C(F)(F)F)C(C)C [Example 25, N-[(1S)-2-((2S)-2-{N-[(1S)-3,3,3-trifluoro-1-(methylethyl)-2-oxopropyl]carbamoyl}pyrrolidinyl)-1-(methylethyl)-2-oxoethyl]-(5-tert-butyl-1-methylpyrazol-3-yl)carboxamide] | – | – | – | all were alive | –
10 | Cc1c(C(=O)N[C@H](C(=O)N2CCC[C@H]2C(=O)N[C@H](C(=O)C(F)(F)F)C(C)C)C(C)C)cnn1-c1ccc(Cl)cc1 [Example 38, N-[(1S)-2-((2S)-2-{N-[(1S)-3,3,3-trifluoro-1-(methylethyl)-2-oxopropyl]carbamoyl}pyrrolidinyl)-1-(methylethyl)-2-oxoethyl]-[1-(4-chlorophenyl)-5-methylpyrazol-4-yl]carboxamide] | – | 8.3 | – | – | 63
11 | COc1ccc(-n2ncc(C(=O)N[C@H](C(=O)N3CCC[C@H]3C(=O)N[C@H](C(=O)C(F)(F)F)C(C)C)C(C)C)c2C)cc1 [Example 40, N-[(1S)-2-((2S)-2-{N-[(1S)-3,3,3-trifluoro-1-(methylethyl)-2-oxopropyl]carbamoyl}pyrrolidinyl)-1-(methylethyl)-2-oxoethyl]-[5-methyl-1-(4-methoxyphenyl)pyrazol-4-yl]carboxamide] | – | 8.4 | – | all were alive | 70
12 | Cc1c(C(=O)N[C@H](C(=O)N2CCC[C@H]2C(=O)N[C@H](C(=O)C(F)(F)F)C(C)C)C(C)C)cnn1-c1ccccc1F [Example 45] | – | 8.4 | – | – | 58
13 | Cc1c(C(=O)N[C@H](C(=O)N2CCC[C@H]2C(=O)N[C@H](C(=O)C(F)(F)F)C(C)C)C(C)C)cnn1-c1ccc(C(F)(F)F)cc1 [Example 47, N-[(1S)-2-((2S)-2-{N-[(1S)-3,3,3-trifluoro-1-(methylethyl)-2-oxopropyl]carbamoyl}pyrrolidinyl)-1-(methylethyl)-2-oxoethyl]-{5-methyl-1-[4-(trifluoromethyl)phenyl]pyrazol-4-yl}carboxamide] | – | 15 | – | – | 60

Source: patent publication US7067491B2, “Heterocyclic compounds having elastase-inhibiting activity and intermediates thereof” (Dainippon Pharmaceutical Co., Ltd., priority 2002, dated 2006)
